{"source": "patent US8153589B2", "about": "“JNK3 as a target for the treatment of angiogenesis-related diseases” (The University of North Carolina at Chapel Hill, priority 2009, dated 2012)", "format_in_all_cases": "cell-based, bovine", "key": {"[1]": {"system": "eNOS", "test": "eNOS Ser 1177 phosphorylation, Western blot in BAECs", "experimental": "(§1) Cells were harvested in lysis buffer (1% Triton X-100, 50 mM Tris, pH 7.4, 150 mM NaCl, 1 mM Na3VO4 and 0.1% protease inhibitor tablet; Roche) and clarified by centrifugation at 16,000 g. Equal amounts of proteins were incubated with a specific antibody overnight at 4° C. with gentle rotation. Protein A/G Plus-agarose beads (Santa Cruz Biotechnology, Santa Cruz, Calif.) were used to pull down the antibody complexes. Afterward, beads were washed with lysis buffer, and immune complexes were separated by SDS-PAGE. Total cell lysates were separated by SDS-PAGE and transferred to nitrocellulose membranes.\nThe degree of SDF-1α-induced activation of eNOS was examined in bovine aortic endothelial cells (BAECs) by monitoring phosphorylation of the Ser 1177 activation site in eNOS. […] Phosphorylation of Ser 1177 peaked at 5 minutes after SDF-1α stimulation (FIG. 1A), and increased in a dose-dependent fashion over a SDF-1α concentration range of 50 ng/ml to 500 ng/ml (FIG. 1B), which approximates physiologically relevant SDF-1α concentrations."}, "[2]": {"system": "BAECs", "test": "Boyden chamber migration assay", "experimental": "Boyden chamber assays were performed as previously described (40, 41) using a 48-well chamber apparatus (NeuroProbe, Cabin John, Md.). The lower chambers of the apparatus were filled with DMEM with or without SDF-1alpha and then covered with the collagen-coated filter and the upper chambers. Cells pretreated with or without the indicated inhibitors were then added to the upper chambers. After incubating for 6 h at 37° C., cells present on the lower surface were fixed, stained and identified with the 40× objective lens on a Nikon Eclipse TS 100 inverted microscope.\nTo determine whether eNOS activation is required for SDF-1α-mediated endothelial cell migration, we performed scratch-wound healing and Boyden chamber migration assays in the presence of the NOS-specific inhibitor L-NMMA (19). Confluent BAECs were pretreated for one hour with 1 mM or 5 mM L-NMMA or vehicle prior to each assay. […] Endothelial cells were transfected with 1 of 3 different bovine eNOS-specific siRNAs, or mixture of all three, and 72 hours later cell lysates were examined by western blot analysis for levels of eNOS protein."}, "[3]": {"system": "JNK3", "test": "JNK activation (phospho-JNK Western blot) in BAECs", "conditions": "BAECs", "experimental": "as §1\nMitogen-activated protein kinases (MAPKs), including ERK1/2 and p38, have been reported to enhance angiogenesis (20, 21). However, the role of JNK in angiogenesis remains controversial, with studies showing both positive and negative outcomes of JNK activation. In order to determine which MAPKs are involved in SDF-1α-induced endothelial cell migration, we screened the activities and expression levels of ERK1/2, p38 and JNK following treatment of BAECs with SDF-1α. […] SDF-1α activated both JNK and ERK1/2 in a dose-dependent manner (FIG. 2B). […] Protein and mRNA for all three JNK isoforms, JNK1, JNK2 and JNK3, can be found in BAECs (FIGS. 5, A&B). In order to determine which JNK protein(s) was activated by SDF-1α in these cells we used a previously described assay (22). Exogenous JNK1, JNK2 and JNK3 proteins containing Flag or GFP-epitopes were transiently expressed in BAECs and their activities were determined via western blotting with a phospho-JNK antibody following SDF-1α treatment. […] To confirm the finding that JNK3 is the only JNK entity activated by SDF-1α, we transfected cells with siRNAs for each of the JNK proteins and then tested the effect of each siRNA for the ability to suppress SDF-1α-induced JNK activation. […] Because JNK3 was the only SDF-1α-activated JNK in endothelial cells in our studies (FIG. 2C & FIG. 5, C), we consider the phospho-JNK signals in western blots with anti-phospho-JNK antibody as the signals for activated JNK3."}, "[4]": {"system": "ERK1/2", "test": "ERK1/2 activation, Western blot in BAECs", "conditions": "BAECs, SDF-1α 50 ng/ml", "experimental": "as §1\n(§2) Mitogen-activated protein kinases (MAPKs), including ERK1/2 and p38, have been reported to enhance angiogenesis (20, 21). However, the role of JNK in angiogenesis remains controversial, with studies showing both positive and negative outcomes of JNK activation. In order to determine which MAPKs are involved in SDF-1α-induced endothelial cell migration, we screened the activities and expression levels of ERK1/2, p38 and JNK following treatment of BAECs with SDF-1α. […] SDF-1α activated both JNK and ERK1/2 in a dose-dependent manner (FIG. 2B). […] Exogenous JNK1, JNK2 and JNK3 proteins containing Flag or GFP-epitopes were transiently expressed in BAECs and their activities were determined via western blotting with a phospho-JNK antibody following SDF-1α treatment. […]"}, "[5]": {"system": "p38", "test": "p38 activation, Western blot in BAECs", "conditions": "SDF-1α treatment", "experimental": "as §1, §2"}, "[6]": {"system": "BAECs", "test": "In vitro Matrigel angiogenesis (tube formation) assay", "conditions": "50 ng/ml SDF-1α, control siRNA cells", "experimental": "Endothelial cell tube formation was analyzed with the Matrigel-based tube formation assay (40, 41). Chilled 24-well plates were coated with growth factor-reduced Matrigel (Becton Dickinson, San Jose, Calif.) that was polymerized at 37° C. for 30 min. BAECs were transfected with siRNA constructs with the Amaxa Nucleofector electroporation reagent. Three days later, cells were trypsinized, and plated at equal numbers into each Matrigel-coated well. After 18 hours of incubation in the absence or presence of SDF-1alpha, the formation of tubes was photographed (Eclipse, 10× objective, TS100Nikon). Images were quantified with ImageJ.\nEndothelial cell migration is a critical step for tube formation during angiogenesis. To test the importance of JNK3 in highly ordered cell assembly processes, we examined the effect of JNK knockdown with siRNAs on the formation of capillary-like tubes in Matrigel. BAECs were transfected with JNK1 siRNA, JNK2 siRNA, JNK3 siRNA or control siRNA. After 72 hours, cells were plated on Matrigel in medium containing 50 ng/ml SDF-1α."}}}
{"substance": "SDF-1α", "values": [{"measurement": "time of peak phosphorylation of eNOS Ser 1177 after stimulation", "setting": "[1]; 50 ng/ml SDF-1alpha", "value": 5, "unit": "min"}, {"measurement": "eNOS phosphorylation (Ser 1177)", "setting": "[1]; 50 ng/ml to 500 ng/ml SDF-1α", "value": "time- and dose-dependent manner"}, {"measurement": "cell migration in Boyden chambers", "setting": "[2]; 50 ng/ml SDF-1alpha, no inhibitor (FIG. 1D)", "value": "86±5", "unit": "cells per field"}, {"measurement": "endothelial cell migration", "setting": "[2]; control-transfected BAECs, 50 ng/ml SDF-1alpha (FIG. 4F)", "value": "125±9", "unit": "cells/field"}, {"measurement": "phosphorylation of exogenous Flag/GFP-tagged JNK1, JNK2, JNK3", "setting": "[3]; 50 ng/ml SDF-1alpha for 5 minutes", "value": "only phosphorylation of JNK3 (but not JNK1 or JNK2) was increased"}, {"measurement": "JNK activity", "setting": "[3]; SDF-1α 50 ng/ml", "value": "potently induced"}, {"measurement": "ERK1/2 activity", "setting": "[4]", "value": "potently induced"}, {"measurement": "p38 activation", "setting": "[5]", "value": "not significantly activated"}, {"measurement": "tube length", "setting": "[6]", "value": "605±106", "unit": "μm"}]}
